Results: patent US8471061B2 (priority 2004, dated 2013)
Read-outs that look alike come from different tables or passages of the source.

Tests used:
[1] = test system: New Zealand white rabbits (males), shaved uninjured skin; settings: in vivo
Protocol: Using three New Zealand white rabbits (males), a solution prepared by dissolving 0.5 g of 5-aminolevulinic acid phosphate in 0.5 ml of distilled water (pH 3.1) was applied for 4 hours to a 2.5 cm square area of the shaved uninjured skin of each animal which was then observed for 1, 24, 48 and 72 hours.

Rice seeds (Akinishiki) = experiment: Plant growth regulation effect; format: in vivo; settings: ratio to untreated plot
Protocol: Rice seeds (Akinishiki) were soaked in Benlate (manufactured by Sumika Takeda Engei) (200 times) aqueous solution for a whole day and night and then incubated at 30° C. under a dark condition to effect hastening of germination. Seeds of even pigeon breast stage were selected, 10 seeds were inserted using a pair of tweezers into a groove on one expanded polyethylene sheet, which was made using a cutter knife, and this sheet was floated on a tall Petri dish filled with 150 ml of 5-aminolevulinic acid phosphate of respective concentrations shown in Table 11 and incubated at 25° C. for 24 hours under 5,000 lux continuous light irradiation. The number of repetitions was set to 3 repetitions for each concentration. Examination was carried out three days thereafter, and lengths of the first leaf sheath and seminal root in each plot were measured to calculate their ratios to those in the untreated plot and to calculate average values thereof.

[2] = test system: cotton (variety; M-5 Acala); experiment: Salinity tolerance improving effect; format: in vivo; parameters: key: salt damage: 0 = none, 5 = plant withered
Protocol: A porcelain pot of 12 cm in inner diameter having no drainage hole was filled with 600 g of upland soil, and 7 to 8 seeds of cotton seeds (variety; M-5 Acala) were sowed, covered with 1 cm in thickness of the soil and allowed to grow in a green house. Thereafter, general management was carried out, and at the time of leaflet development, a salinity improving agent containing each of the compounds to be tested with respective concentrations shown in Table 12 and 0.05% (v/v) of a spreader (Neoesterin: manufactured by Kumiai Chemical Industry) was prepared and was applied to foliage at an application volume of 100 liters per 10 are. Four days thereafter, sodium chloride in an amount which corresponds to 0 to 1.5% by weight per soil weight as shown in Table 12 was dissolved in 30 ml of water and added dropwise to the soil. By further continuing general cultivation, examination was carried out 23 days thereafter. the examination was carried out by naked eye observation, and the results of salt damage were evaluated based on the following 6 steps.
• 0: Absolutely no salt damage is observed. • 1: Very weak salt damage is observed. • 2: Weak salt damage is observed. • 3: Obvious salt damage is observed. • 4: Strong salt damage is observed. • 5: The plant body withered up due to salt damage.

[3] = Test on the generation of silver chloride precipitation with silver nitrate; format: physicochemical; settings: 0.5 g with 0.5 g of silver nitrate in 10 ml of ion exchange water, 5 minutes
Protocol: In 10 ml of ion exchange water, 0.5 g of 5-aminolevulinic acid phosphate and 0.5 g of silver nitrate were dissolved, the mixture was allowed to stand still for 5 minutes, and conditions of the liquid was observed. […] In this connection, 0.5 g of 5-aminolevulinic acid hydrochloride and 0.5 g of silver nitrate were dissolved in 10 ml of ion exchange water and allowed to stand still for 5 minutes, and conditions of the liquid was observed.
In 10 ml of ion exchange water, 0.5 g of 5-aminolevulinic acid nitrate and 0.5 g of silver nitrate were dissolved, the mixture was allowed to stand still for 5 minutes, and conditions of the liquid was observed.
In this connection, 0.5 g of 5-aminolevulinic acid hydrochloride and 0.5 g of silver nitrate were dissolved in 10 ml of ion exchange water and allowed to stand still for 5 minutes, and conditions of the liquid was observed.
In 10 ml of ion exchange water, 0.5 g of 5-aminolevulinic acid p-toluenesulfonate and 0.5 g of silver nitrate were dissolved, the mixture was allowed to stand still for 5 minutes, and conditions of the liquid was observed.

[4] = treating concentration 10 ppm, NaCl 0 wt % per soil weight
[5] = treating concentration 10 ppm, NaCl 0.5 wt % per soil weight
[6] = treating concentration 10 ppm, NaCl 0.75 wt % per soil weight
[7] = treating concentration 10 ppm, NaCl 1 wt % per soil weight
[8] = treating concentration 10 ppm, NaCl 1.5 wt % per soil weight
[9] = treating concentration 30 ppm, NaCl 0 wt % per soil weight
[10] = treating concentration 30 ppm, NaCl 0.5 wt % per soil weight
[11] = treating concentration 30 ppm, NaCl 0.75 wt % per soil weight
[12] = treating concentration 30 ppm, NaCl 1 wt % per soil weight
[13] = treating concentration 30 ppm, NaCl 1.5 wt % per soil weight
[14] = treating concentration 100 ppm, NaCl 0 wt % per soil weight
[15] = treating concentration 100 ppm, NaCl 0.5 wt % per soil weight
[16] = treating concentration 100 ppm, NaCl 0.75 wt % per soil weight
[17] = treating concentration 100 ppm, NaCl 1 wt % per soil weight
[18] = treating concentration 100 ppm, NaCl 1.5 wt % per soil weight
[19] = treating concentration 300 ppm, NaCl 0 wt % per soil weight
[20] = treating concentration 300 ppm, NaCl 0.5 wt % per soil weight
[21] = treating concentration 300 ppm, NaCl 0.75 wt % per soil weight
[22] = treating concentration 300 ppm, NaCl 1 wt % per soil weight
[23] = treating concentration 300 ppm, NaCl 1.5 wt % per soil weight
[24] = male, New Zealand white, rabbit, 1 h
[25] = male, New Zealand white, rabbit, 24 h
[26] = male, New Zealand white, rabbit, 48 h
[27] = male, New Zealand white, rabbit, 72 h

With `Cl.NCC(=O)CCC(=O)O` [5-aminolevulinic acid hydrochloride, reference compound] the “judgement by the OECD Guideline from pH (animal test not carried out)” value ([1]; rabbit) was “judged corrosive”, the “First leaf sheath length (%)” value (Rice seeds (Akinishiki); 1 ppm) was 107% and the “Seminal root length (%)” value (Rice seeds (Akinishiki); 1 ppm) was 103%. For the same molecule, the “First leaf sheath length (%)” value (Rice seeds (Akinishiki); 10 ppm) was 101%, the “Seminal root length (%)” value (Rice seeds (Akinishiki); 10 ppm) was 96% and the “First leaf sheath length (%)” value (Rice seeds (Akinishiki); 100 ppm) was 98%. The “Seminal root length (%)” value (Rice seeds (Akinishiki); 100 ppm) was 109%, the salt damage evaluation [2, 4] was 0 and the salt damage evaluation [2, 5] was 1. For the same molecule, the salt damage evaluation [2, 6] was 1, the salt damage evaluation [2, 7] was 1 and the salt damage evaluation [2, 8] was 2. The salt damage evaluation [2, 9] was 0, the salt damage evaluation [2, 10] was 1 and the salt damage evaluation [2, 11] was 2. It also gave a salt damage evaluation [2, 12] of 3, a salt damage evaluation [2, 13] of 3 and a salt damage evaluation [2, 14] of 0. For the same molecule, the salt damage evaluation [2, 15] was 1, the salt damage evaluation [2, 16] was 1 and the salt damage evaluation [2, 17] was 2. The salt damage evaluation [2, 18] was 3, the salt damage evaluation [2, 19] was 0 and the salt damage evaluation [2, 20] was 0. It also gave a salt damage evaluation [2, 21] of 1, a salt damage evaluation [2, 22] of 1 and a salt damage evaluation [2, 23] of 2. The generation of precipitate [3] was “Generation of the precipitate was found”.
With `NCC(=O)CCC(=O)O.O=P(O)(O)O` [5-aminolevulinic acid phosphate, 5-aminolevulinic Acid Phosphate] the “Formation of dropsy and edema (formed numbers), per rabbit” value ([1]; male, New Zealand white, 1 h) was 0, the “Formation of erythema and dry crust (formed numbers), per rabbit” value ([1]; male, New Zealand white, 1 h) was 1 and the “Formation of dropsy and edema (formed numbers), per rabbit” value ([1]; male, New Zealand white, 24 h) was 0. For the same molecule, the “Formation of erythema and dry crust (formed numbers), per rabbit” value ([1]; male, New Zealand white, 24 h) was 1, the “Formation of dropsy and edema (formed numbers), per rabbit” value ([1]; male, New Zealand white, 48 h) was 0 and the “Formation of erythema and dry crust (formed numbers), per rabbit” value ([1]; male, New Zealand white, 48 h) was 0. For the same molecule, the “Formation of dropsy and edema (formed numbers), per rabbit” value ([1]; male, New Zealand white, 72 h) was 0, the “Formation of erythema and dry crust (formed numbers), per rabbit” value ([1]; male, New Zealand white, 72 h) was 0 and the “Total formed numbers after 24 hours and 72 hours” value ([1]; male, New Zealand white, rabbit) was “Total formed numbers after 24 hours and 72 hours: 3”. The “Formation of dropsy and edema (formed numbers)” value [1, 24] was 0, the “Formation of dropsy and edema, Total of three rabbits” value [1, 24] was 0 and the “Formation of erythema and dry crust (formed numbers)” value [1, 24] was 0. For the same molecule, the “Formation of erythema and dry crust, Total of three rabbits” value [1, 24] was 3, the skin reaction observed ([1]; male, New Zealand white, rabbit, 4 h) was “very slight red spots were observed within 24 hours, but became normal when observed after 48 hours” and the “Formation of dropsy and edema (formed numbers)” value [1, 25] was 0. For the same molecule, the “Formation of dropsy and edema, Total of three rabbits” value [1, 25] was 0, the “Formation of erythema and dry crust (formed numbers)” value [1, 25] was 0 and the “Formation of erythema and dry crust, Total of three rabbits” value [1, 25] was 3. For the same molecule, the “Formation of dropsy and edema (formed numbers)” value [1, 26] was 0, the “Formation of dropsy and edema, Total of three rabbits” value [1, 26] was 0 and the “Formation of erythema and dry crust (formed numbers)” value [1, 26] was 0. For the same molecule, the “Formation of erythema and dry crust, Total of three rabbits” value [1, 26] was 0, the “Formation of dropsy and edema (formed numbers)” value [1, 27] was 0 and the “Formation of dropsy and edema, Total of three rabbits” value [1, 27] was 0. For the same molecule, the “Formation of erythema and dry crust (formed numbers)” value [1, 27] was 0, the “Formation of erythema and dry crust, Total of three rabbits” value [1, 27] was 0 and the skin stimulation ([1]; rabbit) was “skin stimulation was not observed”. The “stimulation classification (United Nations recommendation GHS)” value ([1]; rabbit) was “does not come under a stimulus substance”, the “First leaf sheath length (%)” value (Rice seeds (Akinishiki); 1 ppm) was 102% and the “Seminal root length (%)” value (Rice seeds (Akinishiki); 1 ppm) was 106%. For the same molecule, the “First leaf sheath length (%)” value (Rice seeds (Akinishiki); 10 ppm) was 106%, the “Seminal root length (%)” value (Rice seeds (Akinishiki); 10 ppm) was 108% and the “First leaf sheath length (%)” value (Rice seeds (Akinishiki); 100 ppm) was 101%. For the same molecule, the “Seminal root length (%)” value (Rice seeds (Akinishiki); 100 ppm) was 101%, the salt damage evaluation [2, 4] was 0 and the salt damage evaluation [2, 5] was 0. It also gave a salt damage evaluation [2, 6] of 1, a salt damage evaluation [2, 7] of 2 and a salt damage evaluation [2, 8] of 3. The salt damage evaluation [2, 9] was 0, the salt damage evaluation [2, 10] was 0 and the salt damage evaluation [2, 11] was 0. It also gave a salt damage evaluation [2, 12] of 1, a salt damage evaluation [2, 13] of 2 and a salt damage evaluation [2, 14] of 0. For the same molecule, the salt damage evaluation [2, 15] was 1, the salt damage evaluation [2, 16] was 2 and the salt damage evaluation [2, 17] was 3. The salt damage evaluation [2, 18] was 4, the salt damage evaluation [2, 19] was 0 and the salt damage evaluation [2, 20] was 1. It also gave a salt damage evaluation [2, 21] of 1, a salt damage evaluation [2, 22] of 2 and a salt damage evaluation [2, 23] of 3. For the same molecule, the generation of precipitate [3] was “Generation of the precipitate was not found”.
